From patent US20260159499A1, “COMPOUND AS FAK INHIBITOR AND USE THEREOF” (WIGEN BIOMEDICINE TECHNOLOGY (SHANGHAI) CO., LTD., priority 2021, published 2026)

Legend:
[1] = molecular target: FAK recombinant protein (Homo sapiens, UniProt Q05397); assay: Inhibitory activity against FAK enzyme; type: biochemical; details: TK substrate, ATP
Procedure: The compound serially diluted with DMSO and a FAK recombinant protein were mixed, and the mixture was left to stand at room temperature for 10 min. A biotin-labeled TK substrate (TK) and ATP were then added. […] After the mixture was incubated at room temperature for 1 h, the fluorescence intensity at 615 nm and 665 nm was measured. The ratio of the fluorescence intensity at 665 nm and 615 nm was calculated. The inhibition percentages and IC50 of the compounds were calculated compared to the DMSO control group.

[2] = test system: PC3 cells; assay: PC3 cell proliferation, 3D activity detection; type: cell-based, human; details: PC3, 3D culture, 14 days, class symbol, read-out: 3D IC50 against PC3 cells
Procedure: 3D activity detection: PC3 cells were seeded in a 96-well plate at 1200 cells/well, and 3D culture was performed. 14 days after the compound serially diluted was added, the growth of the cells was determined. The inhibition percentage and IC50 of the compound were calculated compared to the DMSO control group.

[3] = test system: PC3 cells; assay: PC3 cell proliferation, 2D activity detection; type: cell-based, human; details: PC3, 2D, 72 h, class symbol, read-out: 2D IC50 against PC3 cells
Procedure: 2D activity detection: 1200 PC3 cells were seeded in a 96-well plate. After overnight adherence culture, the compound serially diluted was added. 72 h after addition, Cell Titer-Lumi (Beyotime C0068XL) was added to measure the ATP content in the cells. The growth of the cells was evaluated, and IC50 of the compounds against cell growth was calculated.

FAK recombinant protein, sequence (Q05397 whole entry, species assumed): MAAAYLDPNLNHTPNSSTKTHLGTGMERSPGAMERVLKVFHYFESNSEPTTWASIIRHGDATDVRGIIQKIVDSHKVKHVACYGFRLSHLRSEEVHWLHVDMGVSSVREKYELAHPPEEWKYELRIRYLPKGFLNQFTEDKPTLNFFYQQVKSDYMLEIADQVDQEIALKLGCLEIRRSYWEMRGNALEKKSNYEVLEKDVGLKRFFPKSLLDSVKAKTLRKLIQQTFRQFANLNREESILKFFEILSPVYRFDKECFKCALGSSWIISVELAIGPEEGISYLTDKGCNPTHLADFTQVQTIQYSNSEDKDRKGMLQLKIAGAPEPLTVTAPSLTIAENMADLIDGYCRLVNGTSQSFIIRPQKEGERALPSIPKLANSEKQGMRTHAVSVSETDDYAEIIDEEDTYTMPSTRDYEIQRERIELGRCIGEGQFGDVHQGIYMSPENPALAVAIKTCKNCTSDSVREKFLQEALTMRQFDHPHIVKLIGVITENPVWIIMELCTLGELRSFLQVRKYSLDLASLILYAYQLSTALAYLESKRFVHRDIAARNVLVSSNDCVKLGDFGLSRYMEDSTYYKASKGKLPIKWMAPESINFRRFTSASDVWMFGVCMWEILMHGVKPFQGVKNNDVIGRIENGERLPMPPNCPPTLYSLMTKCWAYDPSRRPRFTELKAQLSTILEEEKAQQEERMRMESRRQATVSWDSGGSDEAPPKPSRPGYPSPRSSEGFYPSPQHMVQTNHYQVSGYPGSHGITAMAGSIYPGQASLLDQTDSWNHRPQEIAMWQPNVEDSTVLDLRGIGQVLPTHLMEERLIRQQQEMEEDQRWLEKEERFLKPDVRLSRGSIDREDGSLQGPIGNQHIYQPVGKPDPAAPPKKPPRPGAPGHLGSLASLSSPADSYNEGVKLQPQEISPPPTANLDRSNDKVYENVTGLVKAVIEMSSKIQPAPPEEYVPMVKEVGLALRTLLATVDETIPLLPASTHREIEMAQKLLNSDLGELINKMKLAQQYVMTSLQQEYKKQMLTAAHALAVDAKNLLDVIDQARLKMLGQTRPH

| SMILES | IC50 [1] | IC50 ([2]; Homo sapiens, PC-3, 336 h) | IC50 ([3]; Homo sapiens, PC-3) | IC50 [2] | IC50 [3] |
| --- | --- | --- | --- | --- | --- |
| COc1cc(C(=O)NC2CC3(CCN(C)CC3)C2)c(-c2cnn(C)c2)cc1Nc1ncc(C(F)(F)F)c(Oc2cccc3c2C(=O)N(C)C3)n1 [Compound 88] | 10 to 50 nM | 5 to 50 nM | > 2000 nM |  |  |
| COc1cc(C(=O)NC2CC3(CCN(C)CC3)C2)ccc1Nc1ncc(C(F)(F)F)c(Cc2cccc3c2C(=O)N(C)C3C)n1 (stereo not drawn) [Compound 75] | < 10 nM | 5 to 50 nM | > 2000 nM |  |  |
| CNC(=O)c1ccccc1Oc1nc(Nc2cc(F)c(C(=O)NC3CCC4(CC3)CN(C)C4)cc2OC)ncc1C(F)(F)F [Compound 2] | < 10 nM | 5 to 50 nM | > 2000 nM |  |  |
| [2H]C([2H])([2H])N1CC2(CCC(NC(=O)c3cc(OC)c(Nc4ncc(C(F)(F)F)c(Oc5cccc6c5C(=O)N(C)C6)n4)cc3F)CC2)C1 [Compound 48] | < 10 nM | 5 to 50 nM | > 2000 nM |  |  |
| COc1cc(C(=O)NC2CC3(CCN(C)CC3)C2)ccc1Nc1ncc(C(F)(F)F)c(Oc2cccc3c2C(=O)N(C)C3)n1 [Compound 45] | < 10 nM | < 5 nM | > 2000 nM |  |  |
| COc1cc(N2CCC3(CCN(C)C3)C2)ccc1Nc1ncc(C(F)(F)F)c(Oc2cccc3c2C(=O)N(C)C3)n1 (stereo not drawn) [Compound 98] | < 10 nM | < 5 nM | > 2000 nM |  |  |
| COc1cc(C(=O)NC2CC3(CCN(C)CC3)C2)ccc1Nc1ncc(C(F)(F)F)c(Oc2cccc3c2C(=O)N(OC)C3)n1 [Compound 81] | < 10 nM | < 5 nM | > 2000 nM |  |  |
| COc1cc(C(=O)NC2CCC3(CC2)CN(C)C3)c(F)cc1Nc1ncc(C(F)(F)F)c(Oc2ccccc2N(C)S(C)(=O)=O)n1 [Compound 17] | < 10 nM | 5 to 50 nM | > 2000 nM |  |  |
| COc1cc(N2CC3(CCN(C)CC3)C2)c(F)cc1Nc1ncc(Cl)c(Oc2cccc3c2C(=O)N(C)C3)n1 [Compound 110, 7-((5-chloro-2-((5-fluoro-2-methoxy-4-(7-methyl-2,7-diazaspiro[3.5]non-2-yl)phenyl)amino)pyrimidin-4-yl)oxy)-2-methylisoindolin-1-one] | < 10 nM | < 5 nM | > 2000 nM |  |  |
| COc1cc(C(=O)NC2CC3(CCN(C)CC3)C2)c(F)cc1Nc1ncc(C(F)(F)F)c(Cc2cccc3c2C(=O)CC3)n1 [Compound 84] | < 10 nM | 5 to 50 nM | > 2000 nM |  |  |
| COc1cc(C(=O)NC2CCn3cnnc3C2)c(F)cc1Nc1ncc(C(F)(F)F)c(Oc2cccc3c2C(=O)N(C)C3)n1 (stereo not drawn) [Compound 33] | < 10 nM | 5 to 50 nM | > 2000 nM |  |  |
| COc1cc(C(=O)NC2CC3(CCN(C)CC3)C2)c(Cl)cc1Nc1ncc(C(F)(F)F)c(Cc2cccc3c2C(=O)N(C)C3)n1 [Compound 55] | < 10 nM | < 5 nM | > 2000 nM |  |  |
| COc1cc(C(=O)NC2COC3(CCN(C)C3)C2)c(F)cc1Nc1ncc(C(F)(F)F)c(Oc2ccccc2N(C)S(C)(=O)=O)n1 (stereo not drawn) [Compound 15] | < 10 nM | < 5 nM | > 2000 nM |  |  |
| COc1cc(C(=O)NC2CCC3(CC2)CCN3C)c(F)cc1Nc1ncc(C(F)(F)F)c(Oc2ccccc2N(C)S(C)(=O)=O)n1 (stereo not drawn) [Compound 18] | < 10 nM | 5 to 50 nM | > 2000 nM |  |  |
| COc1cc(C(=O)N2CCC3(CCN(C)C3)C2)c(F)cc1Nc1ncc(C(F)(F)F)c(Oc2cccc3c2C(=O)N(C)C3)n1 (stereo not drawn) [Compound 37] | < 10 nM |  |  | 5 to 50 nM | > 2000 nM |
| CCN1CCC2(CC1)CC(NC(=O)c1cc(OC)c(Nc3ncc(C(F)(F)F)c(Oc4cccc5c4C(=O)N(C)C5)n3)cc1F)C2 [Compound 42] | < 10 nM | < 5 nM | > 2000 nM |  |  |

The remaining lines, values ahead:

| IC50 [1] | IC50 ([2]; Homo sapiens, PC-3, 336 h) | IC50 ([3]; Homo sapiens, PC-3) | IC50 [2] | IC50 [3] | SMILES |
| --- | --- | --- | --- | --- | --- |
| > 50 nM | > 50 nM | > 2000 nM |  |  | COc1cc(N2CC3(CCC2=O)CCN(C)CC3)c(F)cc1Nc1ncc(C(F)(F)F)c(Oc2cccc3c2C(=O)N(C)C3)n1 [Compound 65] |
| < 10 nM | < 5 nM | > 2000 nM |  |  | COc1cc(N2CCC3(CC2)CN(C)C3)c(F)cc1Nc1ncc(C(F)(F)F)c(Oc2cccc3c2C(=O)N(C)C3)n1 [Compound 91] |
| < 10 nM | 5 to 50 nM | > 2000 nM |  |  | COc1cc(C(=O)NC2CCC3(CCN(C)C3)C2)c(F)cc1Nc1ncc(C(F)(F)F)c(Oc2ccccc2N(C)S(C)(=O)=O)n1 (stereo not drawn) [Compound 13] |
| < 10 nM | < 5 nM | > 2000 nM |  |  | COc1cc(C(=O)NC2CC3(CCN(C)CC3)C2)c(F)cc1Nc1ncc(C(F)(F)F)c(Oc2ccccc2N(C)S(C)(=O)=O)n1 [Compound 10] |
| < 10 nM | < 5 nM | > 2000 nM |  |  | COc1cc(N2CC3(CCN(CC4CC4)CC3)C2)ccc1Nc1ncc(C(F)(F)F)c(Oc2cccc3c2C(=O)N(C)C3)n1 [Compound 106] |
| < 10 nM | < 5 nM | > 2000 nM |  |  | COc1cc(N2CCC3(CCN(C)CC3)C2)ccc1Nc1ncc(C(F)(F)F)c(Oc2cccc3c2C(=O)N(C)C3)n1 [Compound 96] |
| 10 to 50 nM | 5 to 50 nM | > 2000 nM |  |  | COc1cc(C(=O)NC2CCC3(CC2)CCN(C)CC3)c(F)cc1Nc1ncc(C(F)(F)F)c(Cc2cccc3c2C(=O)N(C)C3)n1 [Compound 54] |
| < 10 nM | 5 to 50 nM | > 2000 nM |  |  | COc1cc(C(=O)NC2CCC3(CC2)CCN(C)CC3)c(F)cc1Nc1ncc(C(F)(F)F)c(Oc2cccc3c2C(=O)N(C)C3)n1 [Compound 26] |
| < 10 nM | 5 to 50 nM | > 2000 nM |  |  | COc1cc(C(=O)NC2CC3(CCN(C)CC3)C2)ccc1Nc1ncc(C(F)(F)F)c(Oc2cccc3c2C(=O)CC3)n1 [Compound 83] |
| < 10 nM | < 5 nM | > 2000 nM |  |  | COc1cc(N2CC3(CCN(C4CCC4)CC3)C2)ccc1Nc1ncc(C(F)(F)F)c(Oc2cccc3c2C(=O)N(C)C3)n1 [Compound 105] |
| < 10 nM | 5 to 50 nM | > 2000 nM |  |  | CNC(=O)c1ccccc1Oc1nc(Nc2cc(F)c(C(=O)NC3CC4(CCN(C)C4)CO3)cc2OC)ncc1C(F)(F)F (stereo not drawn) [Compound 5] |
| < 10 nM | 5 to 50 nM | > 2000 nM |  |  | COc1cc(C(=O)N2CCC3(CCN(C)CC3)C2)c(F)cc1Nc1ncc(C(F)(F)F)c(Oc2cccc3c2C(=O)N(C)C3)n1 [Compound 39] |
| 10 to 50 nM | 5 to 50 nM | > 2000 nM |  |  | CCc1cc(C(=O)NC2CC3(CCN(C)CC3)C2)c(F)cc1Nc1ncc(C(F)(F)F)c(Oc2cccc3c2C(=O)N(C)C3)n1 [Compound 85, 2-fluoro-4-((4-((2-methyl-3-oxoisoindol-4-yl)oxy)-5-(trifluoromethyl)pyrimidin-2-yl)amino)-N-(7-methyl-7-azaspiro[3.5]nonan-2-yl)-5-ethylbenzamide] |
| < 10 nM | 5 to 50 nM | > 2000 nM |  |  | COc1cc(C(=O)NC2CCC3(CC2)CCN(C)C3)c(F)cc1Nc1ncc(C(F)(F)F)c(Cc2cccc3c2C(=O)N(C)C3)n1 (stereo not drawn) [Compound 53] |
| < 10 nM | < 5 nM | > 2000 nM |  |  | COc1cc(C(=O)NC2CC3(CCN(C)CC3)C2)c(F)cc1Nc1ncc(C(F)(F)F)c(Oc2cccc3c2C(=O)N(OC)C3)n1 [Compound 79] |
| < 10 nM | 5 to 50 nM | > 2000 nM |  |  | COc1cc(C(=O)NC2CCC3(CC2)CN(C)C3)c(Cl)cc1Nc1ncc(C(F)(F)F)c(Oc2cccc3c2C(=O)N(C)C3)n1 [Compound 44] |
| < 10 nM | 5 to 50 nM | > 2000 nM |  |  | COc1cc(N2CCC3(CCN(C)CC3)C2=O)c(F)cc1Nc1ncc(C(F)(F)F)c(Oc2cccc3c2C(=O)N(C)C3)n1 [Compound 61, 2-(2-fluoro-5-methoxy-4-((4-((2-methyl-3-oxoisoindol-4-yl)oxy)-5-(trifluoromethyl)pyrimidin-2-yl)amino)phenyl)-8-methyl-2,8-diazaspiro[4.5]decan-1-one] |
| < 10 nM | 5 to 50 nM | > 2000 nM |  |  | COc1cc(C(=O)NC2CCN3CCN=C3C2)c(F)cc1Nc1ncc(C(F)(F)F)c(Oc2cccc3c2C(=O)N(C)C3)n1 (stereo not drawn) [Compound 31] |
| < 10 nM | 5 to 50 nM | > 2000 nM |  |  | COc1cc(C(=O)NC2CCC3(CC2)CN(C)C3)c(F)cc1Nc1ncc(C(F)(F)F)c(Cc2cccc3c2C(=O)N(C)C3)n1 [Compound 50] |
| < 10 nM | < 5 nM | > 2000 nM |  |  | CCN1CCC2(CC1)CN(c1ccc(Nc3ncc(C(F)(F)F)c(Oc4cccc5c4C(=O)N(C)C5)n3)c(OC)c1)C2 [Compound 103] |
| < 10 nM | 5 to 50 nM | > 2000 nM |  |  | COc1cc(C(=O)NC2CC3(CCN(C)CC3)C2)c(F)cc1Nc1ncc(C(F)(F)F)c(Oc2cccc3c2C(=O)N(C)C3(C)C)n1 [Compound 76] |
| < 10 nM | 5 to 50 nM | > 2000 nM |  |  | COc1cc(C(=O)N2CCC3(CCCN(C)C3)C2)c(F)cc1Nc1ncc(C(F)(F)F)c(Oc2cccc3c2C(=O)N(C)C3)n1 (stereo not drawn) [Compound 40] |
| < 10 nM | 5 to 50 nM | > 2000 nM |  |  | COc1cc(C(=O)NC2CC3(CCN(C)CC3)C2)ccc1Nc1ncc(C(F)(F)F)c(Oc2cccc3c2C(=O)N(C)C3(C)C)n1 [Compound 78] |
